# From PubChem BioAssay AID624394 (The Scripps Research Institute Molecular Screening Center, 2012)
# Target: Photoreceptor-specific nuclear receptor (Homo sapiens) (UniProt Q9Y5X4)
# Assay: concentration-response of NR2E3 activators – cell-based, luminescence, luciferase reporter, dose response (AID 624394)
# Sequence of Photoreceptor-specific nuclear receptor (Homo sapiens) (Q9Y5X4 whole entry, looked up): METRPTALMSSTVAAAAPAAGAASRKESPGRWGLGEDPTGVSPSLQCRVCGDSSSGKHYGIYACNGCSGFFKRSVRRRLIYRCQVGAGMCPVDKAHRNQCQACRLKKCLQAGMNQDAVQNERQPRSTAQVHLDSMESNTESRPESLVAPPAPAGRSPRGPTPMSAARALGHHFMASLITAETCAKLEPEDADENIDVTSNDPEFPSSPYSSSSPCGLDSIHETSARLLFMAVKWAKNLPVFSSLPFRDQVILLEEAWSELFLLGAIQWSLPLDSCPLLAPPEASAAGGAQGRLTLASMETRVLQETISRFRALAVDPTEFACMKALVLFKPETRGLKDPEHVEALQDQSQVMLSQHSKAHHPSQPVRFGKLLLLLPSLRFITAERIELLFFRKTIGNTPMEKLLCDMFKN
smiles,measurement,value
CCOP(=O)(CCP(=O)(OCC)OCC)OCC.C[CH2][Sn]([Cl])([Cl])[CH2]C,IC50,478 nM
